Laboratory results published in US20160166507A1, “NANOEMULSIONS OF HYDROPHOBIC PLATINUM DERIVATIVES” (NEMUCORE MEDICAL INNOVATIONS, INC., priority 2013, published 2016).

Assays:
[1] = test system: SKOV-3 Ovarian Cancer Cells; assay: MTT cytotoxicity assay with combination index analysis; type: cell-based, human; conditions: for Degree of Combination Effect: Pt complex with CER
Description: In order to determine if the nanoemulsion formulations according to the disclosure produce a cytotoxic effect, the following experiments were done on SKOV3 cells.
A tetrazolium (MTT) assay was performed, which measures the activity of cellular enzymes that reduces the MTT dye to insoluble formazan. SKOV3 cells were treated with corresponding test nanoemulsions or control solutions as indicated below in Table VI. Polyethylenimine at 50 μg/ml was used as a positive control for cytotoxicity. The effect of cis-Pt in solution, nanoemulsion formulations, and EGFR-targeted nanoemulsion formulations of the disclosure on the viability of ovarian SKOV3 cells were studied and measured after 72 hr treatment. After the completion of treatment, cells were incubated with MTT reagent (50 μg/well) for 2 hr. The resulting formazan crystals were dissolved in dimethyl sulfoxide ([…]) and measured at 570 nm in the Plate reader (Synergy HT, Biotek Instruments, Winooski, Vt.).
Values are shown as mean±SD, n=8. All IC50 values were obtained by analyzing the MTT assays results using Graphpad Prism 5 scientific data analysis software.
The optimum concentration of multiple chemotherapeutic agents combined in the nanoemulsion formulations of the present disclosure can be determined by calculating the combination index from the dose response curves of the single agents (Chou (2006) Pharmacol. Rev. 58(3): 621-681). This method uses the isobologram equation below to determine combination index (CI): […]
where, “a” is the primary therapeutic IC50 in combination with secondary therapeutic at concentration “b.” “A” is the primary therapeutic IC50 without secondary therapeutic; and “B” is the secondary therapeutic IC50 in the absence of primary therapeutic. The CI represents the degree of interaction between two drugs regardless of mechanism. […]
For the nanoemulsion formulations of the present disclosure, the ratio of Pt:CER was determined in order to identify ratios that could reduce the IC50 of Pt.

[2] = test system: SKOV3 human ovary cancer cells; assay: In vivo therapeutic efficacy in mice injected ip with SKOV3 cells; parameters: species or system Nu/Nu female mice
Description: In order to determine if the nanoemulsion formulations according to the disclosure produce therapeutic efficacy against cancer in vivo, the following experiment was performed. Orthotropic tumors were developed in 30 Nu/Nu female mice, each weighing approximately 20 g (Charles River Laboratories, Cambridge, Mass.). The mice were injected intraperitoneally (ip) with 4×10^6 SKOV3 human ovary cancer cells (ATCC, Manassas, Va.) suspended in phosphate buffered saline100 μl PBS. The 30 mice were divided into 3 test groups of 10 individual mice. Each mouse was then dosed every 7 d for 5 wk with either nothing (control group) or 1 of 2 test compounds. The first test compound (cisplatin) was administered as a comparative sample in 5 mg/kg doses. The second test compound (EGFR-targeted nanoemulsion formulation containing Pt-MMA and ceramide in a 1:5 molar ratio) was administered in 3 cycles of 5 mg/kg platinum and an additional 2 cycles of 7.5 mg/kg platinum. The doses of Pt-MMA (21 mg/kg) and cis-Platin (5 mg/kg) were calculated so that animals received equivalent amounts of Pt. The survival time of each group of mice was determined and the median survival time (days) calculated using Graphpad Kaplan-Meyers survival analysis software on the basis of the observed survival time of each mouse.

[3] = cited from earlier work
[4] = dosed every 7 d for 5 wk, SKOV3, Nu/Nu mice

## cis-Diamine Pt (II) Chloride Monopalmitic Acid [Cisplatin-mono-palmitate]
[1]
  Degree of Combination Effect: synergistically

## CCCCCCCCCCCCC/C=C/[C@H](O)[C@@H](CO)NC(=O)CCCCC [CER in Solution, C6-ceramide]
[1]; Homo sapiens, SK-OV-3, SKOV-3 cells, MTT, 72 hr treatment, mean±SD, n=8, read-out: IC50 (nM), inhibition of growth
  IC50: 10000 nM

## N.N.[Cl][Pt][Cl] [Cisplatin in Solution, Cis-dichlorodiammine Pt (II)]
[2]; Kaplan-Meyers analysis, 10 mice per group
  Median Survival: 28 days
[2]; [4]
  Average Tumor Size at 21 Days (mm^3): 640 ± 314 mm^3
  Time for First Tumor to Reach 1000 mm^3: 17 days

## cis-Diamine Pt (II) Chloride Monomyristic Acid [Cisplatin-mono-myristate]
[1]
  Degree of Combination Effect: synergistically

## N.N.O=C([O-])C1(C(=O)[O-])CCC1.[Pt+2] [carboplatin]
[3]
  half life (published values): 50.4 min
